Assay results published in PubChem BioAssay (NCI).
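In this assay, cells in 96-well plates receive the compound at five concentrations for 48 hours. Endpoints are linearly interpolated between the surrounding concentrations. GI50: concentration for 50% inhibition of growth. TGI marks complete inhibition of growth.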

Key:
Test in all cases: growth of human tumour cells (NCI), 48 h
UACC-62 melanoma = test system: UACC-62 melanoma
SF-268 CNS = test system: SF-268 CNS
NCI-H522 lung = test system: NCI-H522 lung
786-0 renal = test system: 786-0 renal
OVCAR-5 ovarian = test system: OVCAR-5 ovarian
SNB-19 CNS = test system: SNB-19 CNS
PC-3 prostate = test system: PC-3 prostate
HT29 colon = test system: HT29 colon
EKVX NSCLC = test system: EKVX NSCLC
SK-MEL-5 melanoma = test system: SK-MEL-5 melanoma

Row | Compound | GI50 (UACC-62 melanoma) [µM] | TGI (UACC-62 melanoma) [µM] | GI50 (SF-268 CNS) [µM] | TGI (SF-268 CNS) [µM] | GI50 (NCI-H522 lung) [µM] | TGI (NCI-H522 lung) [µM] | GI50 (786-0 renal) [µM] | TGI (786-0 renal) [µM] | GI50 (OVCAR-5 ovarian) [µM] | TGI (OVCAR-5 ovarian) [µM] | GI50 (SNB-19 CNS) [µM] | TGI (SNB-19 CNS) [µM] | GI50 (PC-3 prostate) [µM] | TGI (PC-3 prostate) [µM] | GI50 (HT29 colon) [µM] | TGI (HT29 colon) [µM] | GI50 (EKVX NSCLC) [µM] | TGI (EKVX NSCLC) [µM] | GI50 (SK-MEL-5 melanoma) [µM] | TGI (SK-MEL-5 melanoma) [µM]
1 | CN(C)CCCOc1ccccc1NC1=C(Cl)C(=O)C(Nc2ccccc2OCCCN(C)C)=C(Cl)C1=O | 1.58 | 3.05 | 1.03 | 2.61 | 0.17 | 0.383 | 0.661 | 1.91 | 1.4 | 2.84 | 1.57 | 3.02 | 0.696 | 2.19 | 0.253 | 0.584 | 0.693 | 1.97 | 1.35 | 2.65
2 | COc1cccc(C2CC(c3cc(OC)c(OC)c(OC)c3)=NN2)c1 (stereo not given) | 20.6 | > 100 | 13.6 | 81.2 | 12.8 | 42.1 | 13.7 | 56.4 | 18.4 | 66.1 | 16.8 | > 100 | 7.26 | 45.9 | 3.2 | 27.2 | 14.5 | 46.1 | 11.8 | 24
3 | CC/C(Cc1ccccc1)=C(\c1ccc(OCCN2CCCCCC2)cc1)c1ccc(OC(=O)NCc2ccccc2)cc1 | 6.38 | 13 | 4.23 | 11.3 | 1.9 | 7.35 | 1.38 | 4.43 | 6.2 | 12.8 | 3.7 | 10.4 | 2.3 | 8.36 | 1.34 | 3.53 | 6.29 | 14.1 | 1 | 2
4 | O=[N+]([O-])c1ccc(Nc2ccccc2-c2ccccc2)c2nonc12 | 4.44 | 18 | 14.9 | 36.8 | 11.6 | 37.5 | 12.6 | 32.6 | 22.4 | 62.9 | 14.5 | 32.3 | 13.6 | 66.2 | 19.3 | 47.2 | 15.5 | 64.1 | 6 | 18.8
5 | COC1=CC(c2ccc[nH]2)=N/C1=C\c1[nH]c(C)c(C(=O)OCc2ccccc2)c1C | 0.0579 | 0.193 | 0.11 | 1.94 | 0.0968 | 1.15 | 0.0666 | 1.08 | 0.211 | 1.99 | 0.606 | 29.2 | 0.112 | 20.6 | 0.0359 | 1.27 | 0.206 | 3.64 | 0.0476 | 0.177
6 | OCCOc1ccc(-c2cc(-c3ccccn3)nc(-c3ccccn3)c2)cc1 | – | 2.66 | – | > 100 | – | 14.1 | – | 13.9 | – | 12.1 | – | > 100 | – | > 100 | – | > 100 | – | > 100 | – | 8.54
7 | Nc1ncnc2c1ncn2C1OC(COP(=O)(O)CP(=O)(O)O)C(O)C1O (stereo not given) | – | > 100 | – | > 100 | – | > 100 | – | > 100 | – | > 100 | – | > 100 | – | > 100 | – | > 100 | – | > 100 | – | > 100
